Test results published in patent US20060239958A1, “Biodegradable and pressure-sensitive material for medical use” (priority 2003, published 2006).

What follows are compounds tested on L929 cells (assay: Cytotoxicity test using L929 cells).
Type: cell-based
Description: FIG. 1 is a graph showing the result of a cytotoxicity test on three compounds related to the synthesis of a citric acid derivative (CAD).
A cytotoxicity test was carried out in the following manner. As one example of the low-molecular-weight derivative serving as the hardening component, a biological low-molecular-weight derivative (CAD) was synthesized by modifying three carboxyl groups of a citric acid with N-hydroxysuccinimide (HOSu), and a cytotoxicity test was performed using L929 cells and the synthesized CAD. The number of cells in a sample added with no CAD was defined as 100%.

Structure (SMILES)	cytotoxicity (number of cells; sample added with no CAD defined as 100%)
O=C(O)CC(O)(CC(=O)O)C(=O)O [citric acid]	extremely low toxicity
O=C(CC(O)(CC(=O)ON1C(=O)CCC1=O)C(=O)ON1C(=O)CCC1=O)ON1C(=O)CCC1=O [CAD]	extremely low toxicity
O=C1CCC(=O)N1O [HOSu, N-hydroxysuccinimide]	extremely low toxicity
